Laboratory results: ChEMBL document CHEMBL1201862, “PubChem BioAssay data set” (2004)
Active and inactive are the calls of the source.

How the values were obtained:
cells [1] = type: functional, cell-based
[2] = target: Luciferin 4-monooxygenase (Photinus pyralis, UniProt P08659); assay: inhibition of purified Photinus pyralis luciferase – biochemical, luminescence, dose response (AID 1891)
[3] = Luminescence Cell-Based Dose Confirmation HTS to Identify Inhibitors of Platelet Dense Granule Release. [Related pubchem assays: 1663 (Primary HTS), 1678 (Summary of Project)]; type: functional
cells [4] = type: functional, cell-based; remark: listed apart in the source
Genome polyprotein = Genome polyprotein (dengue virus type 2, UniProt P29990); assay: flavivirus cap methylation enzyme inhibition – biochemical, confirmation dose response, primary screen (AID 588689); type: functional
Fatty acid synthase [5] = target: T1, Fatty acid synthase (Homo sapiens, UniProt P49327); assay: inhibition of human FAS-TE enzyme activity – biochemical, endpoint fluorescence intensity, uHTS hits, dose response (AID 624327); type: functional;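 further: fluorescence from hydrolysis of an O-methyl fluorescein acyl ester substrate by the enzyme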
Fatty acid synthase [6] = target: T1, Fatty acid synthase; assay: inhibition of human FAS-TE enzyme activity – biochemical, kinetic fluorescence intensity, dose response (AID 624326); type: functional;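 further: rate of fluorescence rise from hydrolysis of a fluorogenic O-methyl fluorescein ester substrate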
[7] = HEK-293T viability loss after treatment – luminescence, T-cell screen hits, cytotoxicity control for TCR NF-kB inhibitor project, dose response (AID 489026); type: functional, cell-based;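 further: cells exposed to compound about 14 hours before the viability readout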
INS1 = assay: INS-1E survival protection against cytokine death – cell-based, luminescence, retest, dose response (AID 449756); type: functional; conditions: Rattus norvegicus;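 further: cell death triggered by IL-1 beta plus TNF-alpha plus IFN-gamma mixture; protective hits raise ATP signal compared with cytokine alone wells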
[8] = microbe, parasite or virus in culture; type: functional; conditions: Mycobacterium tuberculosis
[9] = target: T2, Heat shock factor protein 1 (Mus musculus, UniProt P38532); assay: decrease of HSF1-responsive luciferase luminescence – cell-based, NIH3T3, dose retest, confirmation (AID 2382); type: functional;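 further: NIH3T3 fibroblasts with HSF1-driven luciferase reporter stressed by proteasome inhibitor MG132; luminescence from HSF1-driven luciferase expression after 8 hours of MG132 stress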
T2 sequence (P38532 whole entry): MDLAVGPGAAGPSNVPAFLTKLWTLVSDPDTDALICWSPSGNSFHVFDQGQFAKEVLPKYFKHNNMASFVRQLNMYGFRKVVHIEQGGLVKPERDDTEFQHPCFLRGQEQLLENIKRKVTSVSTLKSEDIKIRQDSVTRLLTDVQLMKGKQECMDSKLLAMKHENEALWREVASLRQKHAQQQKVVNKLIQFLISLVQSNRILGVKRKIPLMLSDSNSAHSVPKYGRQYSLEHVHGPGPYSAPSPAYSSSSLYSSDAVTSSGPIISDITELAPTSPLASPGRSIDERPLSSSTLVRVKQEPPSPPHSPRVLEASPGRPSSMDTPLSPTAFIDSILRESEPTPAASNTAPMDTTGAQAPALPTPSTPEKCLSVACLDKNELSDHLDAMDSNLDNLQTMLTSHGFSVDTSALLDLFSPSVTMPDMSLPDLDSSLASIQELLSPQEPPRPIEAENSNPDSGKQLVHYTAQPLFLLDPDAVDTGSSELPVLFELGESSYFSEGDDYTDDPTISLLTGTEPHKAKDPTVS

[10] = target: Induced myeloid leukemia cell differentiation protein Mcl-1 (Homo sapiens, UniProt Q07820); type: functional
cells [11] = type: functional
[12] = viability of uninfected HEp-2 cells – cell-based, HTS, cytotoxicity control for RSV inhibitor project, dose response (AID 2410); type: functional; conditions: human respiratory syncytial virus
[13] = target: T3, Short transient receptor potential channel 4 (Mus musculus, UniProt Q9QUQ5); assay: block of DAMGO-driven TRPC4 calcium entry – cell-based, HEK293 TRPC4/mu-opioid, Fluo-4 calcium, dose response (AID 434942); type: functional;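 further: potency of inhibitors blocking the TRPC4 calcium response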
T3 sequence (Q9QUQ5 whole entry): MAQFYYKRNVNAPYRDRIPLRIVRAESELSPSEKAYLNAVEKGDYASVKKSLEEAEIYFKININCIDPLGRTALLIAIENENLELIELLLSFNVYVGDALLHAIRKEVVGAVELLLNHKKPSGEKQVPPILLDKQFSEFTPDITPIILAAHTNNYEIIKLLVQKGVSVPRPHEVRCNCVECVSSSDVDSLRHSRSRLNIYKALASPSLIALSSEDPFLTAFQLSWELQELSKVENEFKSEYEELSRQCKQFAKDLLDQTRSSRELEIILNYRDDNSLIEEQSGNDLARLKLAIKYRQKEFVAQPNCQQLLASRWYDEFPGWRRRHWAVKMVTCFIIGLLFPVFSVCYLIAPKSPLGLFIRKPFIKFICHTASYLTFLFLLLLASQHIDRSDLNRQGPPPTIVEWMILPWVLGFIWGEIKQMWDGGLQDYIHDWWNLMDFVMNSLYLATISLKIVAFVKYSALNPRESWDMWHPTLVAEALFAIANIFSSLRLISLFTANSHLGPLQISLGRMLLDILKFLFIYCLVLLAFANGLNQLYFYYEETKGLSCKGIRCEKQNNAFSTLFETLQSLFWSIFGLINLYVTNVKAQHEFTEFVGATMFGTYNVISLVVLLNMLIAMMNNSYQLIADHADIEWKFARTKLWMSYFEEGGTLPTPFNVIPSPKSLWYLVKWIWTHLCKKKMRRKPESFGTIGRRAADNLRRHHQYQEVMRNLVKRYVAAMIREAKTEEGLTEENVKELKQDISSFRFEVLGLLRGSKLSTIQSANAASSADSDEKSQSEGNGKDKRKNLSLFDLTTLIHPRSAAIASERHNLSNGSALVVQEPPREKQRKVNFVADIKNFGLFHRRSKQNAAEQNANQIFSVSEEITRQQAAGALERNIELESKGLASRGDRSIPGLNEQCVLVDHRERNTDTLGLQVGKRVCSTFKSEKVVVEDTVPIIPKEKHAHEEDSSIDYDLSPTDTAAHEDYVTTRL

[14] = Luminescence Cell-Based Dose Retest to Confirm Inhibitors of Cancer Stem Cells. [Related pubchem assays (depositor defined):AID2717, AID2721]; type: functional, Homo sapiens; conditions: Homo sapiens
[15] = Luminescence Cell-Based Dose Confirmation HTS to Identify Activators of 5'UTR Stem-Loop Driven Alpha-Synuclein mRNA Translation in H4 Neuroglioblastoma Cells. [Related pubchem assays: 1829 (Project Summary), 1814 (Primary HTS)]; type: functional
[16] = Luminescence Cell-Based Dose Response HTS to Identify Activators of Luciferase Translation or Activity in H4 […] Cells. [Related pubchem assays: 1829 (Project Summary), 1814 (Primary HTS)]; type: functional
H4 = assay: Luminescence Cell-Based Dose Response HTS to Identify Activators of 5'UTR Stem-Loop Driven Prion Protein mRNA Translation in H4 Neuroglioblastoma Cells. [Related pubchem assays: 1829 (Project Summary), 1814 (Primary HTS)]; type: functional; conditions: Homo sapiens
HEK293 [17] = assay: inhibition of NOD1-driven NF-kB reporter – cell-based, luminescence, uHTS, primary screen (AID 1578); type: functional; conditions: Homo sapiens
HEK293 [18] = assay: cells; type: functional, cell-based; conditions: Homo sapiens
HEK293 [19] = assay: cells; type: functional, cell-based; conditions: Homo sapiens; remark: listed apart in the source
HEK293 [20] = assay: NOD2 signaling inhibitors in MDP-stimulated cells, cell-based, uHTS, luminescence (AID 2001); type: functional; conditions: Homo sapiens
[21] = luciferase reporter signal suppression in cells – H4 neuroglioma cells, luminescence, dose response (AID 1990); type: functional, cell-based
[22] = Luminescence Cell-Based Dose Response HTS to Identify Inhibitors of 5'UTR Stem-Loop Driven Prion Protein mRNA Translation in H4 Neuroglioblastoma Cells. [Related pubchem assays: 1827 (Project Summary), 1813 (Primary HTS)]; type: functional
[23] = alpha-synuclein stem-loop luciferase translation blockers – H4 neuroglioma cells, luminescence, confirmation (AID 1988); type: functional, cell-based
[24] = target: T4, Histone-lysine N-methyltransferase NSD2 (Homo sapiens, UniProt O96028); type: biochemical
T4 sequence (O96028 whole entry): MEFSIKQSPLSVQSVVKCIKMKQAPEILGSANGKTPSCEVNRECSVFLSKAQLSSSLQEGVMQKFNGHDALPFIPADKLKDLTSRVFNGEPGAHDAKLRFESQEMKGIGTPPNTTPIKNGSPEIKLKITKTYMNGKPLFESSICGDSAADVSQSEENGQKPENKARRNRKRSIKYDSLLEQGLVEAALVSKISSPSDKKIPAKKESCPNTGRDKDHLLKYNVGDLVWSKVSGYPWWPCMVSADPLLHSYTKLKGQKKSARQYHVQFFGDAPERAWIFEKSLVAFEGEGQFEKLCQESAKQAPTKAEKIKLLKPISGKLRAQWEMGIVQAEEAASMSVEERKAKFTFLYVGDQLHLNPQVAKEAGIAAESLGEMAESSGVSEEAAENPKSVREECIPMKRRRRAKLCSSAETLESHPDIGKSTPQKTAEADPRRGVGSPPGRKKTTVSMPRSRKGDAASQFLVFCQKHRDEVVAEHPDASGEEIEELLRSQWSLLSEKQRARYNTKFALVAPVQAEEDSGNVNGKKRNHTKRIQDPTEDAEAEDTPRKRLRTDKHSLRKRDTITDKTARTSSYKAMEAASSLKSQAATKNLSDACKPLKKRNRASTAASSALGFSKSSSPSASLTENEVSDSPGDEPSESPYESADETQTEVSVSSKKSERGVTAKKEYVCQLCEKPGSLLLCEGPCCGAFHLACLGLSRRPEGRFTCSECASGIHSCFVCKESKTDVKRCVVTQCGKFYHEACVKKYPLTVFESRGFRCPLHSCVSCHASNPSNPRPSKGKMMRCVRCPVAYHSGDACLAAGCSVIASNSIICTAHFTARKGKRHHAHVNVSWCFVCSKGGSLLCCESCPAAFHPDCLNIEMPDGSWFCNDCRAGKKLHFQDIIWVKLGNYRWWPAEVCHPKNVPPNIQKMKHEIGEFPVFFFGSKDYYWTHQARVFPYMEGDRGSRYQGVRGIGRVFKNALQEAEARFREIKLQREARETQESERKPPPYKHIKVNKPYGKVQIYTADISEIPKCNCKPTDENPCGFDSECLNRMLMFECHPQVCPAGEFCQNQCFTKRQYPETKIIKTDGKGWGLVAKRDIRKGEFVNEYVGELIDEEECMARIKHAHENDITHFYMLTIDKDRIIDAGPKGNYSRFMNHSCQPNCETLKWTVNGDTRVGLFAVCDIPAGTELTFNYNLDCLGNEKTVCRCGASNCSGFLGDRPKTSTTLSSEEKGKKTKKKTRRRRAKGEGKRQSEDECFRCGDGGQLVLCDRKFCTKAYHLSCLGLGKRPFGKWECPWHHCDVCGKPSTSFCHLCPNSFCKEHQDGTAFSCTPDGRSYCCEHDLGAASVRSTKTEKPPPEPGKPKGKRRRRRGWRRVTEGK

Induced myeloid leukemia cell differentiation protein Mcl-1, sequence (Q07820 whole entry): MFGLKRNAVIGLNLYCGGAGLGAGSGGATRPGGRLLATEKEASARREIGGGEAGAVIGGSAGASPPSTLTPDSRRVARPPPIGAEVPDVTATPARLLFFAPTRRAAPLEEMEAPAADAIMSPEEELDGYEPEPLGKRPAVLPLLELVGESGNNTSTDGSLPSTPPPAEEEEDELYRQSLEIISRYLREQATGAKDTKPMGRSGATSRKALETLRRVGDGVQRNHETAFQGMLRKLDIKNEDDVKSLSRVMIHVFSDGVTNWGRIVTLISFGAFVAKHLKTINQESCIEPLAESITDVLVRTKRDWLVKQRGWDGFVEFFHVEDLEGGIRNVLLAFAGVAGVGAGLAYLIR
T1 sequence (P49327 whole entry): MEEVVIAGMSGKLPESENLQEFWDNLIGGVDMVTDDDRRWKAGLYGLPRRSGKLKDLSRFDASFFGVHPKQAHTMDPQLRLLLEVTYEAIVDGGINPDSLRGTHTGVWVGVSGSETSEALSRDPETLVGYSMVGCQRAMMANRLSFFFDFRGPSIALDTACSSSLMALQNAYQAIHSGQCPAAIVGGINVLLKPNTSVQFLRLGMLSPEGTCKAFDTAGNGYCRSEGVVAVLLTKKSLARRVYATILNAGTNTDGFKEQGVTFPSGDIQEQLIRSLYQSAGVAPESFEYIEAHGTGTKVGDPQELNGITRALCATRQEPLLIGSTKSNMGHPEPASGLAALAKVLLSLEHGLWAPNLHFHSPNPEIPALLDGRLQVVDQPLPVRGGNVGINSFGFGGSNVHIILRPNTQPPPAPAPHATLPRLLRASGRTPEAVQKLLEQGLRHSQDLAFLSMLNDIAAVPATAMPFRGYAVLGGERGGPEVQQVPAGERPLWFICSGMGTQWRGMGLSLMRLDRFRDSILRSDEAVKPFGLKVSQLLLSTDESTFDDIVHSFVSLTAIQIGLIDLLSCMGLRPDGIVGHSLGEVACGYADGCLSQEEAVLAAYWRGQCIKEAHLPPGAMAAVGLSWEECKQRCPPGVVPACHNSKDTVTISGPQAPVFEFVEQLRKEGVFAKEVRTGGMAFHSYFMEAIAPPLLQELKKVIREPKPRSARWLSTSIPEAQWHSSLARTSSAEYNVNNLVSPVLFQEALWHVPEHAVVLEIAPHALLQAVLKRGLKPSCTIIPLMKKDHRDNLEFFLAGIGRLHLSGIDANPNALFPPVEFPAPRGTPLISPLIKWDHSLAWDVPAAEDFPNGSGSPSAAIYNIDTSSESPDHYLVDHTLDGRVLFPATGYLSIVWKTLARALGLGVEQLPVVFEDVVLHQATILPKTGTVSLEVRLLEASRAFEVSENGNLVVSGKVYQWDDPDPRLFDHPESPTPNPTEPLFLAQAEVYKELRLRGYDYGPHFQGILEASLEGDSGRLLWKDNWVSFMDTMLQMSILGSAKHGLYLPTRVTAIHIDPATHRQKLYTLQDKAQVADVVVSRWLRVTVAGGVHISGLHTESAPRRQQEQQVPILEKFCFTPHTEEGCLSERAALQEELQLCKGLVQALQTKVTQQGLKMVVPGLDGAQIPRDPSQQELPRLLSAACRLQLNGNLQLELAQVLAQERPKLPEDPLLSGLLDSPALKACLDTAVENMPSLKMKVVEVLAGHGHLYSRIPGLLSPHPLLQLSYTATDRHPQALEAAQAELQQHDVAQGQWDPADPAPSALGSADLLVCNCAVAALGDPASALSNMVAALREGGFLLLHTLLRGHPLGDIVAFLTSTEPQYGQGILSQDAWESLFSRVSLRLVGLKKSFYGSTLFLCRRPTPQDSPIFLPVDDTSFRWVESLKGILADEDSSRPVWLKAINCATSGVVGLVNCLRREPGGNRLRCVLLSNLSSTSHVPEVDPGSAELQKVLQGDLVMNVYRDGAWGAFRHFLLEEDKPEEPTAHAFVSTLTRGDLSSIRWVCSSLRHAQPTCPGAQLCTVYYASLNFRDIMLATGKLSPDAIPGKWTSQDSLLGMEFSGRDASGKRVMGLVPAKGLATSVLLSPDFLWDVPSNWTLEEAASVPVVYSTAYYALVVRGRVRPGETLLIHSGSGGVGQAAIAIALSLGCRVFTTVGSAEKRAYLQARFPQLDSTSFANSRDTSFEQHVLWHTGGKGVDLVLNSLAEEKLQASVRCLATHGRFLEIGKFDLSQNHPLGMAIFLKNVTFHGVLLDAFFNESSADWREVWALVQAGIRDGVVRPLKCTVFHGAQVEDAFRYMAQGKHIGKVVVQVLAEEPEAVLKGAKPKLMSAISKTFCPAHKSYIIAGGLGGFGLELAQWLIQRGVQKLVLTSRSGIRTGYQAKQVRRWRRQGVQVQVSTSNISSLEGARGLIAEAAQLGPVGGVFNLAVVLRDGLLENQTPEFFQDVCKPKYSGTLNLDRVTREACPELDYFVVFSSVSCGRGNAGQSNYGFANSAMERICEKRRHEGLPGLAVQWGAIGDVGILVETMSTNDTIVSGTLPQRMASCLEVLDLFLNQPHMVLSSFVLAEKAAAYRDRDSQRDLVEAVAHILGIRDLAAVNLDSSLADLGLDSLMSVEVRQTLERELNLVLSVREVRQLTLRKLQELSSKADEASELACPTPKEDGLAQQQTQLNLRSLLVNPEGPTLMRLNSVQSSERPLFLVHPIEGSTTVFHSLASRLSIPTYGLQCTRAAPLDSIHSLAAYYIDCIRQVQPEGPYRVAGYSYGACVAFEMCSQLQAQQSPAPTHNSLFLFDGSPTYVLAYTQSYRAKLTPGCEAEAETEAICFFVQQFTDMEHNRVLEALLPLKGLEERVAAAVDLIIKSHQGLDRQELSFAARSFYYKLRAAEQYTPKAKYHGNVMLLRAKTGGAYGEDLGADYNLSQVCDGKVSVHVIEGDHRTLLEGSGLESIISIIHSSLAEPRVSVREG
Genome polyprotein, sequence (P29990 2492-3391 limits assumed): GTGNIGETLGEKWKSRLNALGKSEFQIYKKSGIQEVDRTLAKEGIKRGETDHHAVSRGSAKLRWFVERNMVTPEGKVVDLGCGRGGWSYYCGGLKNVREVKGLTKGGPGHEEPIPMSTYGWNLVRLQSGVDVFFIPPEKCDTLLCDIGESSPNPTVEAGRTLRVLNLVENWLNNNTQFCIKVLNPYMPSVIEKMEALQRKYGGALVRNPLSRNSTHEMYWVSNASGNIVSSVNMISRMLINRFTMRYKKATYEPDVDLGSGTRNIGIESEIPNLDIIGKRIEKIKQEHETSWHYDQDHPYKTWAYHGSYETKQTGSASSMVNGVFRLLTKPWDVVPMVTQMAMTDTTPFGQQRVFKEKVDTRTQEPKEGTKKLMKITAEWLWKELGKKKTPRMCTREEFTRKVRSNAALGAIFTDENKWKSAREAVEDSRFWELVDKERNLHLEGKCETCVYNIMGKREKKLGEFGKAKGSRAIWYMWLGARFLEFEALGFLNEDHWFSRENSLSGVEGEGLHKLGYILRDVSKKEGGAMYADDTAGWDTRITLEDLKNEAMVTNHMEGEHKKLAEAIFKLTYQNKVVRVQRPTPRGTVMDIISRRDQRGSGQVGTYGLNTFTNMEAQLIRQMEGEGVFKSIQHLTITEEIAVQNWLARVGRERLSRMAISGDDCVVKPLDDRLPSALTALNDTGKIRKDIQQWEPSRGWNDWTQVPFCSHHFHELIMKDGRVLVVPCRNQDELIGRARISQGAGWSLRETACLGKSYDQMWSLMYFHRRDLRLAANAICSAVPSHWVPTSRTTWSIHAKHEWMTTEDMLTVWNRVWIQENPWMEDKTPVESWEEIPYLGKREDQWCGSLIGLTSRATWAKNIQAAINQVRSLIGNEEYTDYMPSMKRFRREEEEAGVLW
Luciferin 4-monooxygenase, sequence (P08659 whole entry): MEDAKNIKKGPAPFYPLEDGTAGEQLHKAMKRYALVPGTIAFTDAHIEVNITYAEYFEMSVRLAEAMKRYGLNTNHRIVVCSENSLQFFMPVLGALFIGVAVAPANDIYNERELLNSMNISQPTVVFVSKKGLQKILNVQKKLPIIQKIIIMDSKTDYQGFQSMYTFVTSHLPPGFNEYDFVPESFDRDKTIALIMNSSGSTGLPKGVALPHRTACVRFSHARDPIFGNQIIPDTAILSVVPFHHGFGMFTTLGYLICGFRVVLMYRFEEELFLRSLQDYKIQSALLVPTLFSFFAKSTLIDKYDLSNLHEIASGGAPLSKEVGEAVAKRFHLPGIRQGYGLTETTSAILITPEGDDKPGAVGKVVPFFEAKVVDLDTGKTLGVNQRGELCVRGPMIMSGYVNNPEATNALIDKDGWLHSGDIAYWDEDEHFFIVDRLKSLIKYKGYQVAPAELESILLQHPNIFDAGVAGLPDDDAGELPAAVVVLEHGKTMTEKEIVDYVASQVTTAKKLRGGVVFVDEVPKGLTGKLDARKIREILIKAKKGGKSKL

Cc1cc(S(=O)(=O)ON2C(=O)c3ccccc3C2=O)ccc1F
EC50 (cells [1]): > 350 µM (not active) | EC50 [2]: > 112 µM (not active) | EC50 [3]: > 112 µM (not active) | EC50 (cells [4]): > 350 µM (not active) | IC50 (Genome polyprotein): > 100 µM (active) | IC50 (Fatty acid synthase [5]): 2.43 µM (active) | IC50 (Fatty acid synthase [6]): 2.07 µM (active)

C=C1C(O)[C@@H]2O[C@]3(CC[C@H](/C=C/C(C)[C@@H]4CC(C)=CC5(O[C@H](C[C@@](C)(O)CO)CCC5O)O4)O3)CC[C@H]2O[C@@H]1C(O)CC(C)[C@H]1OC2(CCCCO2)CCC1C (stereo partly drawn)
IC50 [7]: > 80 µM (inactive) | AC50 (INS1): 5.98 µM (active)

COc1ccc(/C=C/CN2CCC(CO)(Cc3ccccc3Cl)CC2)cc1
CC50 [8]: 32.7 µM (active)

COc1ccc(Nc2ncnc3ccc(Br)cc23)c(OC)c1
EC50 [9]: 0.354 µM (active) | IC50 [7]: > 80 µM (inactive)

O=C(CSc1nnc(-c2ccncc2)o1)N1CCCCCC1
EC50 (cells [1]): > 350 µM (not active) | EC50 (cells [4]): > 350 µM (not active)

CCS(=O)(=O)N1CCN(C(C)CCc2ccccc2)CC1 (stereo not drawn)
IC50 [10]: 6 µM (not active)

Cn1c(CNc2ccccc2O)nc2ccccc21
CC50 [8]: 30.4 µM (active) | IC50 (cells [11]): 4.79 µM (active)

CCN(CC)c1ccc([N+](=O)[O-])c2cccnc12
CC50 [12]: 36.7 µM (active) | EC50 [13]: 10.6 µM (active)

COc1cc(-c2noc(C)c2/C=C/c2ccc(OC(C)=O)cc2)cc(OC)c1OC
AC50 [14]: 0.222 µM (active) | IC50 [7]: 52.8 µM (inactive)

N=C(NOC(=O)Cc1cccs1)c1ccccc1
EC50 [15]: 3.81 µM (active) | EC50 [16]: 11.1 µM (active) | EC50 (cells [1]): > 350 µM (not active) | EC50 (H4): 9.96 µM (active) | EC50 (cells [4]): 20.7 µM (active)

CCC(=O)N1CCc2cc(S(=O)(=O)NCCC(=O)N3CCN(c4cccc(OC)c4)CC3)ccc21
EC50 (cells [1]): > 350 µM (not active) | EC50 (cells [4]): > 350 µM (not active)

CCCCOc1ccc(CSCCN=C(N)N)cc1
EC50 [13]: 3.35 µM (active)

O=C1NC(=S)N/C1=C/c1cccn1-c1ccc([N+](=O)[O-])cc1
IC50 [10]: 4.63 µM (not active)

O=C(c1[nH]nc2c1CCc1ccccc1-2)N1CCN(Cc2ccc3c(c2)OCO3)CC1
EC50 (HEK293 [17]): 5.4 µM (active) | IC50 (HEK293 [18]): 4.07 µM (active) | IC50 (HEK293 [19]): 8.27 µM (active) | IC50 (HEK293 [20]): 5.11 µM (active)

CCOc1ccc(S(=O)(=O)N2c3ccccc3CC2C)cc1 (stereo not drawn)
EC50 [21]: 7.65 µM (inconclusive) | EC50 [22]: 7.42 µM (active) | EC50 [23]: 3.2 µM (active) | IC50 [7]: > 80 µM (inactive)

CNCc1ccccc1OCc1ccccc1F
IC50 [10]: 0.557 µM (active) | AC50 [24]: > 20 µM (inactive)

COc1ccc2c(c1)c(C(=O)CN1CCc3ccccc3C1)c(C)n2C
EC50 (cells [1]): > 350 µM (not active) | EC50 (cells [4]): > 350 µM (not active)

Cc1c(C(=O)OC2CCCC2)[nH]c2c1C(=O)CC(c1ccco1)C2 (stereo not drawn)
IC50 [7]: > 80 µM (inactive)
